Assay results reported in patent US20060069132A1, “Azolecarboxamide herbicides” (priority 2004, published 2006).

Assays:
Surinam grass = experiment: Test C pre-/postemergence herbicide test; format: in vivo, Urochloa decumbens; details: preemergence
In short: (§1)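 Visual ratings on a 0–100 scale (100 = complete control) made versus untreated controls after 12 to 14 greenhouse days. Test chemicals, formulated in surfactant-containing non-phytotoxic solvent, applied preemergence to planted seeds or postemergence to 1- to 4-leaf plants (2 to 18 cm).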

corn = experiment: Test C pre-/postemergence herbicide test; format: in vivo, Zea mays; details: preemergence
In short: as §1

giant foxtail = experiment: Test C pre-/postemergence herbicide test; format: in vivo, Setaria faberi; details: preemergence
In short: as §1

johnsongrass = experiment: Test C pre-/postemergence herbicide test; format: in vivo, Sorghum halepense; details: preemergence
In short: as §1

lambsquarters = experiment: Test C pre-/postemergence herbicide test; format: in vivo, Chenopodium album; details: preemergence
In short: as §1

morningglory = experiment: Test C pre-/postemergence herbicide test; format: in vivo, Ipomoea coccinea; parameters: key to Plant response rating, Morningglory: 0 = no effect, 100 = complete control; details: preemergence
In short: as §1

eastern black nightshade = experiment: Test C pre-/postemergence herbicide test; format: in vivo, Solanum ptycanthum; details: preemergence
In short: as §1

yellow nutsedge = experiment: Test C pre-/postemergence herbicide test; format: in vivo, Cyperus esculentus; details: preemergence
In short: as §1

common ragweed = experiment: Test C pre-/postemergence herbicide test; format: in vivo, Ambrosia elatior; parameters: key to Plant response rating, Ragweed: 0 = no effect, 100 = complete control; details: preemergence
In short: as §1

soybean = experiment: Test C pre-/postemergence herbicide test; format: in vivo, Glycine max; details: preemergence
In short: as §1

[1] = tested on: smallflower umbrella sedge; experiment: Test C flooded paddy test; format: in vivo, Cyperus difformis; details: for Plant response rating, Sedge, Umbrella: 500 g ai/ha, visual rating after 12 to 14 days
ducksalad = experiment: Test C flooded paddy test; format: in vivo, Heteranthera limosa; details: for Plant response rating, Ducksalad: 500 g ai/ha, visual rating after 12 to 14 days
barnyardgrass = experiment: Test C flooded paddy test; format: in vivo, Echinochloa crus-galli; details: for Plant response rating, Barnyardgrass: 500 g ai/ha, visual rating after 12 to 14 days
In short: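 Injury scored visually against controls on a 0 (no effect) to 100 (complete control) scale, 12 to 14 days after treatment in greenhouse. Flooded paddy plants treated at 2-leaf stage; postemergence plants at 1- to 4-leaf stage, 2 to 18 cm tall.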

[2] = 500 g ai/ha, scale 0 to 100 (0 no effect, 100 complete control), visual, 12 to 14 days
[3] = 125 g ai/ha, scale 0 to 100 (0 no effect, 100 complete control)
[4] = 250 g ai/ha, scale of 0 to 100, 0 is no effect, 100 is complete control
[5] = scale 0 to 100 (0 no effect, 100 complete control)
[6] = 62 g ai/ha, scale 0 to 100 (0 no effect, 100 complete control)
[7] = 125 g ai/ha, scale 0 (no effect) to 100 (complete control), visual, 12 to 14 days

## CCc1nn(C(C)C)nc1C(=O)Nc1cccc(C(=O)N(C)CC)c1 [Compound 386]
Surinam grass; 62 g ai/ha, scale 0 to 100
  Plant response rating, Surinam Grass: 80
Surinam grass; 125 g ai/ha
  Plant response rating (0 = no effect, 100 = complete control), Surinam Grass: 80
Surinam grass; 250 g ai/ha, scale 0-100
  Plant response rating, Surinam Grass: 95
Surinam grass; [2]
  Plant response rating, Surinam Grass: 95
corn; 62 g ai/ha, scale 0 to 100
  Plant response rating, Corn: 10
corn; 125 g ai/ha
  Plant response rating (0 = no effect, 100 = complete control), Corn: 60
corn; 250 g ai/ha, scale 0-100
  Plant response rating, Corn: 80
corn; [2]
  Plant response rating, Corn: 85
Giant foxtail; 62 g ai/ha, scale 0 to 100
  Plant response rating, Foxtail, Giant: 80
Giant foxtail; 125 g ai/ha
  Plant response rating (0 = no effect, 100 = complete control), Foxtail, Giant: 90
Giant foxtail; 250 g ai/ha, scale 0-100
  Plant response rating, Foxtail, Giant: 90
Giant foxtail; [2]
  Plant response rating, Foxtail, Giant: 100
johnsongrass; 62 g ai/ha, scale 0 to 100
  Plant response rating, Johnsongrass: 85
johnsongrass; 125 g ai/ha
  Plant response rating (0 = no effect, 100 = complete control), Johnsongrass: 100
johnsongrass; 250 g ai/ha, scale 0-100
  Plant response rating, Johnsongrass: 100
johnsongrass; [2]
  Plant response rating, Johnsongrass: 100
lambsquarters; 62 g ai/ha, scale 0 to 100
  Plant response rating, Lambsquarters: 100
lambsquarters; 125 g ai/ha
  Plant response rating (0 = no effect, 100 = complete control), Lambsquarters: 100
lambsquarters; 250 g ai/ha, scale 0-100
  Plant response rating, Lambsquarters: 100
lambsquarters; [2]
  Plant response rating, Lambsquarters: 100
morningglory; 62 g ai/ha, scale 0 to 100
  Plant response rating, Morningglory: 55
morningglory; 125 g ai/ha
  Plant response rating (0 = no effect, 100 = complete control), Morningglory: 95
morningglory; 250 g ai/ha, scale 0-100
  Plant response rating, Morningglory: 100
morningglory; [2]
  Plant response rating, Morningglory: 100
Eastern black nightshade; 62 g ai/ha, scale 0 to 100
  Plant response rating, Nightshade: 90
Eastern black nightshade; 125 g ai/ha
  Plant response rating (0 = no effect, 100 = complete control), Nightshade: 95
Eastern black nightshade; 250 g ai/ha, scale 0-100
  Plant response rating, Nightshade: 95
Eastern black nightshade; [2]
  Plant response rating, Nightshade: 100
Yellow nutsedge; 62 g ai/ha, scale 0 to 100
  Plant response rating, Nutsedge, Yellow: 0
Yellow nutsedge; 125 g ai/ha
  Plant response rating (0 = no effect, 100 = complete control), Nutsedge, Yellow: 10
Yellow nutsedge; 250 g ai/ha, scale 0-100
  Plant response rating, Nutsedge, Yellow: 40
Yellow nutsedge; [2]
  Plant response rating, Nutsedge, Yellow: 60
Common ragweed; 62 g ai/ha, scale 0 to 100
  Plant response rating, Ragweed: 5
Common ragweed; 125 g ai/ha
  Plant response rating (0 = no effect, 100 = complete control), Ragweed: 98
Common ragweed; 250 g ai/ha, scale 0-100
  Plant response rating, Ragweed: 100
Common ragweed; [2]
  Plant response rating, Ragweed: 100
soybean; 62 g ai/ha, scale 0 to 100
  Plant response rating, Soybean: 90
soybean; 125 g ai/ha
  Plant response rating (0 = no effect, 100 = complete control), Soybean: 90
soybean; 250 g ai/ha, scale 0-100
  Plant response rating, Soybean: 95
soybean; [2]
  Plant response rating, Soybean: 95
[1]; 62 g ai/ha, scale 0 to 100
  Sedge, Umbrella plant response rating: 65
[1]; [3]
  Sedge, Umbrella plant response rating: 75
[1]; [4]
  Sedge, Umbrella plant response rating: 80
[1]; [5]
  Plant response rating, Sedge, Umbrella: 80
ducksalad; 62 g ai/ha, scale 0 to 100
  Ducksalad plant response rating: 25
ducksalad; [3]
  Ducksalad plant response rating: 60
ducksalad; [4]
  Ducksalad plant response rating: 85
ducksalad; [5]
  Plant response rating, Ducksalad: 85
barnyardgrass; [6]
  Barnyardgrass plant response rating: 30
barnyardgrass; [3]
  Barnyardgrass plant response rating: 50
barnyardgrass; [4]
  Barnyardgrass plant response rating: 80
barnyardgrass; [5]
  Plant response rating, Barnyardgrass: 95

## CC(=O)c1cccc(NC(=O)c2cc(C(C)(C)C)nn2CCF)c1 [Compound 128]
Surinam grass; 62 g ai/ha
  Plant response rating (0 = no effect, 100 = complete control), Surinam Grass: 30
Surinam grass; [7]
  Plant response rating, Surinam Grass: 60
corn; 62 g ai/ha
  Plant response rating (0 = no effect, 100 = complete control), Corn: 20
corn; [7]
  Plant response rating, Corn: 20
Giant foxtail; 62 g ai/ha
  Plant response rating (0 = no effect, 100 = complete control), Foxtail, Giant: 10
Giant foxtail; [7]
  Plant response rating, Foxtail, Giant: 10
johnsongrass; 62 g ai/ha
  Plant response rating (0 = no effect, 100 = complete control), Johnsongrass: 90
johnsongrass; [7]
  Plant response rating, Johnsongrass: 90
lambsquarters; [7]
  Plant response rating, Lambsquarters: 30
morningglory; 62 g ai/ha
  Plant response rating (0 = no effect, 100 = complete control), Morningglory: 30
morningglory; [7]
  Plant response rating, Morningglory: 30
Eastern black nightshade; 62 g ai/ha
  Plant response rating (0 = no effect, 100 = complete control), Nightshade: 90
Eastern black nightshade; [7]
  Plant response rating, Nightshade: 90
Yellow nutsedge; 16 g ai/ha, scale 0 to 100, last section of Table C
  Plant response rating, Nutsedge, Yellow: 10
Yellow nutsedge; 31 g ai/ha, scale 0 to 100, last section of Table C
  Plant response rating, Nutsedge, Yellow: 70
Yellow nutsedge; [7]
  Plant response rating, Nutsedge, Yellow: 70
Common ragweed; 62 g ai/ha
  Plant response rating (0 = no effect, 100 = complete control), Ragweed: 10
Common ragweed; [7]
  Plant response rating, Ragweed: 20
soybean; 62 g ai/ha
  Plant response rating (0 = no effect, 100 = complete control), Soybean: 20
soybean; [7]
  Plant response rating, Soybean: 20
[1]; [6]
  Sedge, Umbrella plant response rating: 80
[1]; [3]
  Sedge, Umbrella plant response rating: 90
[1]; [4]
  Sedge, Umbrella plant response rating: 95
[1]; [5]
  Plant response rating, Sedge, Umbrella: 95
ducksalad; [6]
  Ducksalad plant response rating: 80
ducksalad; [3]
  Ducksalad plant response rating: 95
ducksalad; [4]
  Ducksalad plant response rating: 95
ducksalad; [5]
  Plant response rating, Ducksalad: 95
barnyardgrass; [6]
  Barnyardgrass plant response rating: 30
barnyardgrass; 125 g ai/ha, scale of 0 to 100, 0 is no effect, 100 is complete control
  Barnyardgrass plant response rating: 35
barnyardgrass; [4]
  Barnyardgrass plant response rating: 60
barnyardgrass; [5]
  Plant response rating, Barnyardgrass: 65
